Laboratory results published in ChEMBL document CHEMBL1201862, “PubChem BioAssay data set” (2004).
Calls of active or inactive are those of the source.

Assays:
Type in all cases: functional
LIM domain kinase 1 = LIM domain kinase 1 (Homo sapiens, UniProt P53667); test: Navigating the Kinome. Panel member name: LIMK1
[1] = target: Mitogen-activated protein kinase 8 (Homo sapiens, UniProt P45983);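 note: value comes from one member of a kinome-wide kinase profiling panel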
[2] = target: Rho-associated protein kinase 1 (Homo sapiens, UniProt Q13464);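 note: measured within a broad kinome-wide panel profiling many kinases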
[3] = target: T1, Serine/threonine-protein kinase TAO1 (Homo sapiens, UniProt Q7L7X3)
T1 sequence (Q7L7X3 whole entry): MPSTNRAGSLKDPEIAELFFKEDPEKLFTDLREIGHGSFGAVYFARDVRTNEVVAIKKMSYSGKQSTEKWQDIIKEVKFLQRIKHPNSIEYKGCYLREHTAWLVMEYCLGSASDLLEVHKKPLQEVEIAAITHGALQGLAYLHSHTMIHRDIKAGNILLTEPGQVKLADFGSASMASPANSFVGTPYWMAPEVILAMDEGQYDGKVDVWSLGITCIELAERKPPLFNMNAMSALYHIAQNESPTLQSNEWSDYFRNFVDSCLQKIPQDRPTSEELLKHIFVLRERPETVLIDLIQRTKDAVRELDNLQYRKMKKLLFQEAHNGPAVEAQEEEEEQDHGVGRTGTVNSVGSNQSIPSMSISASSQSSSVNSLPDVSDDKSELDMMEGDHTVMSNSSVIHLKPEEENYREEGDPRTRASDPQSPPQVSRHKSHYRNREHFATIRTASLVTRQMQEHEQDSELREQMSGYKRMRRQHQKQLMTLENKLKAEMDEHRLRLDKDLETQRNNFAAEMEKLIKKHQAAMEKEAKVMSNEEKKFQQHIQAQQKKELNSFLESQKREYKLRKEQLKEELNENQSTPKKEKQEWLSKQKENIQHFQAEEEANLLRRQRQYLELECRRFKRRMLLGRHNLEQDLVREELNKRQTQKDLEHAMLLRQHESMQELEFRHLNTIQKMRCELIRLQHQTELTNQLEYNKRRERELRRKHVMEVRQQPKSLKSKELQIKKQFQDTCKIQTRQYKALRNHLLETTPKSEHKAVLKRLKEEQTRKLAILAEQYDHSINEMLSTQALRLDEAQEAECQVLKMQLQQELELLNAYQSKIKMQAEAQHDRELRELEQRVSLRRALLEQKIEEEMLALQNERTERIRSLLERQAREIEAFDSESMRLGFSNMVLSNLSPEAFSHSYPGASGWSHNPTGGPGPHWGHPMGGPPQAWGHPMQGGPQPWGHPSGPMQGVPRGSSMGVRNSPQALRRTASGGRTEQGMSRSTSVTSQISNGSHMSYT

[4] = target: Tyrosine-protein kinase BTK (Homo sapiens, UniProt Q06187)
[5] = target: Serine/threonine-protein kinase pim-1 (Homo sapiens, UniProt P11309)
[6] = target: Serine/threonine-protein kinase PAK 4 (Homo sapiens, UniProt O96013);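 note: value obtained within a kinome profiling panel in which PAK4 was one of the panel members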
[7] = target: T2, Tyrosine-protein kinase JAK3 (Homo sapiens, UniProt P52333)
T2 sequence (P52333 whole entry): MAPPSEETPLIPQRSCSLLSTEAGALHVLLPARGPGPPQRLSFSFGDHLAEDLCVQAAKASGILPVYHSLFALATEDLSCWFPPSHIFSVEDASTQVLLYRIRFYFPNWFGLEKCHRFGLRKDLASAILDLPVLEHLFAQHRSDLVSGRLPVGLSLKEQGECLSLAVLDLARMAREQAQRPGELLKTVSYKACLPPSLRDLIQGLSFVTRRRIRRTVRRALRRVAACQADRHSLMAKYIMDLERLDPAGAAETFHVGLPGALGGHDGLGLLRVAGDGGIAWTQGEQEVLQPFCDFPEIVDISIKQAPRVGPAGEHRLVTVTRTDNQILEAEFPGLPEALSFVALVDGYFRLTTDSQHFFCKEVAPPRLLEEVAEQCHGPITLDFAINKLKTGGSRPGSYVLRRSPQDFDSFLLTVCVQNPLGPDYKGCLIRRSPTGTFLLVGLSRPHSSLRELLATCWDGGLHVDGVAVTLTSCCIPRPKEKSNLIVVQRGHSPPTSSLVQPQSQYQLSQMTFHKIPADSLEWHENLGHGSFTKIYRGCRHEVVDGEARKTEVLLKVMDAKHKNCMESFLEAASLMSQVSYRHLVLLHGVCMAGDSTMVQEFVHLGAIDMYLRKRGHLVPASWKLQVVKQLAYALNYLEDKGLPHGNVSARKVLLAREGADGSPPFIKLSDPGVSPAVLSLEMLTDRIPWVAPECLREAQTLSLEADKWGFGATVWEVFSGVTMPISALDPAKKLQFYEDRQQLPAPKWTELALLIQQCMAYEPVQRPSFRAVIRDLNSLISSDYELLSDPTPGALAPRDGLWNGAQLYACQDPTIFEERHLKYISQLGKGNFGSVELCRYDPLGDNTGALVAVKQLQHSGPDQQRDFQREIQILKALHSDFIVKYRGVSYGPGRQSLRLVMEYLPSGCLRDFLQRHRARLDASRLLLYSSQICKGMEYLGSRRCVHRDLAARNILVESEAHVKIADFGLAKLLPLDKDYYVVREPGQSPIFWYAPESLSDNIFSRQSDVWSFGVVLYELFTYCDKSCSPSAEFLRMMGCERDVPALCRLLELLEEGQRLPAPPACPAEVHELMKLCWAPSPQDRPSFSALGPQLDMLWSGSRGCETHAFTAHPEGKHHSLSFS

[8] = target: Death-associated protein kinase 3 (Homo sapiens, UniProt O43293);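 note: measured as one member of a kinome-wide profiling panel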
[9] = target: Dual specificity tyrosine-phosphorylation-regulated kinase 1B (Homo sapiens, UniProt Q9Y463); test: Navigating the Kinome. Panel member name: DYRK1B
[10] = target: Dual specificity protein kinase CLK4 (Homo sapiens, UniProt Q9HAZ1)
Sequence of Dual specificity protein kinase CLK4 (Q9HAZ1 whole entry): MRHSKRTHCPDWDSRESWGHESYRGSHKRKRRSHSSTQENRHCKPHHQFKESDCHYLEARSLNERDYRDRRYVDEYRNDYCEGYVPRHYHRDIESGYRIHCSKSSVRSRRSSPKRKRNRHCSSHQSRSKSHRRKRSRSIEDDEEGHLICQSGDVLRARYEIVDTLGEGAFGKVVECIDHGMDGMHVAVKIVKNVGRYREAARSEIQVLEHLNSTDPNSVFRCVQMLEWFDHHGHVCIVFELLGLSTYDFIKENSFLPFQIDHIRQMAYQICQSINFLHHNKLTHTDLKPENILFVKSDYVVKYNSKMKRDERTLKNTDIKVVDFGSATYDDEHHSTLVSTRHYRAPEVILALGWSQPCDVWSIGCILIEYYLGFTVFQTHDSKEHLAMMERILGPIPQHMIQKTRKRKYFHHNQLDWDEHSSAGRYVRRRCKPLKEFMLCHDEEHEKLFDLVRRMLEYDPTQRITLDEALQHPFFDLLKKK

Sequence of Serine/threonine-protein kinase pim-1 (P11309 whole entry): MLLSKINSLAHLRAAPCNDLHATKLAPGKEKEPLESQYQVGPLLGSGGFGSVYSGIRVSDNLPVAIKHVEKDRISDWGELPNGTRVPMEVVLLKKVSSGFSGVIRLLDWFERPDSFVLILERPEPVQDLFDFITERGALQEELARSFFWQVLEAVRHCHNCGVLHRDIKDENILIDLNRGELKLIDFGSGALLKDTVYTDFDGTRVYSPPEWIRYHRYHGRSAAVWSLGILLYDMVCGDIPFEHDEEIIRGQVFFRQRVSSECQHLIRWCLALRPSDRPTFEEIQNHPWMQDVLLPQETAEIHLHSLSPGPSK
Sequence of Tyrosine-protein kinase BTK (Q06187 whole entry): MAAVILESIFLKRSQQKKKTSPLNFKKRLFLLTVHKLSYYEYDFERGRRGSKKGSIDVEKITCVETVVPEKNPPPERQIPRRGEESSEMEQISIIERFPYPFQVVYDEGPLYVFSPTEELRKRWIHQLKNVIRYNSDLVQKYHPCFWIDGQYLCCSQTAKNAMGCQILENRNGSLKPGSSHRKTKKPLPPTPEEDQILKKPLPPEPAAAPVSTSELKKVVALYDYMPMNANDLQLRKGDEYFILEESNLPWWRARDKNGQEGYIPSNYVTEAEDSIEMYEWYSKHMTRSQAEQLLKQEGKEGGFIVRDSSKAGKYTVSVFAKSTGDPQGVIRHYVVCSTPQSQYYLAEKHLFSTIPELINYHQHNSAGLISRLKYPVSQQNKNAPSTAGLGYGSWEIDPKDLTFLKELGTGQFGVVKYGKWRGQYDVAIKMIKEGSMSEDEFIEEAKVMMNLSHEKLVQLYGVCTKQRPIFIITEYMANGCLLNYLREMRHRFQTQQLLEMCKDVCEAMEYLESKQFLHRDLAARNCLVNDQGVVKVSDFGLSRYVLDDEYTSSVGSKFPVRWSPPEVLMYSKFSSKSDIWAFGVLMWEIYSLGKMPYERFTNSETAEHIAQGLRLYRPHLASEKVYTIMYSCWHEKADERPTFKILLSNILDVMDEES
Sequence of LIM domain kinase 1 (P53667 whole entry, the tested form may be a part): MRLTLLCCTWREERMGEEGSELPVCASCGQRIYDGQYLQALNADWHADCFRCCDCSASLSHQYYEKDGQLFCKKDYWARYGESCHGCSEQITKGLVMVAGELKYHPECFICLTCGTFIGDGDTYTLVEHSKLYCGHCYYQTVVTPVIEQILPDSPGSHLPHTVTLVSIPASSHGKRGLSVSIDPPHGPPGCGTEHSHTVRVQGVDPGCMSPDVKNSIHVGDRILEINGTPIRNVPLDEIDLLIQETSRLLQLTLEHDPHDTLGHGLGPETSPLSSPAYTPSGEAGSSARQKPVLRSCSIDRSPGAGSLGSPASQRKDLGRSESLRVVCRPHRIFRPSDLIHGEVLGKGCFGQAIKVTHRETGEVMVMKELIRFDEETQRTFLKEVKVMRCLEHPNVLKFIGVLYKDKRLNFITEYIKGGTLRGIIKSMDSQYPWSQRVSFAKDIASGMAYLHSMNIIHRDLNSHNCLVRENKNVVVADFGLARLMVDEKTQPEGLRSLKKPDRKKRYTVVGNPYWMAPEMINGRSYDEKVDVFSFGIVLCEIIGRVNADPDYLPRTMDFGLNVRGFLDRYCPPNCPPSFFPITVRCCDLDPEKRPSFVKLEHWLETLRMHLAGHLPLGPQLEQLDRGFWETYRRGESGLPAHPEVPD
Sequence of Serine/threonine-protein kinase PAK 4 (O96013 whole entry): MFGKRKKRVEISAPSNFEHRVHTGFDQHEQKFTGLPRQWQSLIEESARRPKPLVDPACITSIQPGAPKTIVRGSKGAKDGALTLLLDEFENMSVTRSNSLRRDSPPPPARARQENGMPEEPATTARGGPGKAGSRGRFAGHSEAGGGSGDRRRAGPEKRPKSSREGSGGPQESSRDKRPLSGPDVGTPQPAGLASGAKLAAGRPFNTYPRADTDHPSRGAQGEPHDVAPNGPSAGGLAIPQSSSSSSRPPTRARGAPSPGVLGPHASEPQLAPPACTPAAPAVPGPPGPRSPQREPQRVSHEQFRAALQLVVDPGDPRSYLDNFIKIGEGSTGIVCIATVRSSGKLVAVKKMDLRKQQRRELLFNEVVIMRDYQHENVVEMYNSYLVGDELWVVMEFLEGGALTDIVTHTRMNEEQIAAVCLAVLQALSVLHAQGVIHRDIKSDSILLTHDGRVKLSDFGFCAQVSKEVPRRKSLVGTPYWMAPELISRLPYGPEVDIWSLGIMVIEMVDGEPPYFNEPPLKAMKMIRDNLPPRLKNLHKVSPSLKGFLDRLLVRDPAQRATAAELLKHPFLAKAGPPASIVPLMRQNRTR
Sequence of Death-associated protein kinase 3 (O43293 whole entry): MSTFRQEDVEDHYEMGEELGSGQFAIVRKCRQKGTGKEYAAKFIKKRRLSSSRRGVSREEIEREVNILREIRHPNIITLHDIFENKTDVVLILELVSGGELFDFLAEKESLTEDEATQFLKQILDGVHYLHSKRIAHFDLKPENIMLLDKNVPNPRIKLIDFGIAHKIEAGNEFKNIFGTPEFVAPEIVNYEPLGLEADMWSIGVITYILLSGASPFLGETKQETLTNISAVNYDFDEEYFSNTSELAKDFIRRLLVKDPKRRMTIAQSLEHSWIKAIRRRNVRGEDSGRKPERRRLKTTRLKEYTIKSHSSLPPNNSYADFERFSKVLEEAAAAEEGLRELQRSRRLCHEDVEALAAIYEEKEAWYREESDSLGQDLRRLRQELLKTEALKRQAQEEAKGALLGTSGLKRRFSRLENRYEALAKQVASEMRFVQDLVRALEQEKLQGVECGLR
Sequence of Mitogen-activated protein kinase 8 (P45983 whole entry): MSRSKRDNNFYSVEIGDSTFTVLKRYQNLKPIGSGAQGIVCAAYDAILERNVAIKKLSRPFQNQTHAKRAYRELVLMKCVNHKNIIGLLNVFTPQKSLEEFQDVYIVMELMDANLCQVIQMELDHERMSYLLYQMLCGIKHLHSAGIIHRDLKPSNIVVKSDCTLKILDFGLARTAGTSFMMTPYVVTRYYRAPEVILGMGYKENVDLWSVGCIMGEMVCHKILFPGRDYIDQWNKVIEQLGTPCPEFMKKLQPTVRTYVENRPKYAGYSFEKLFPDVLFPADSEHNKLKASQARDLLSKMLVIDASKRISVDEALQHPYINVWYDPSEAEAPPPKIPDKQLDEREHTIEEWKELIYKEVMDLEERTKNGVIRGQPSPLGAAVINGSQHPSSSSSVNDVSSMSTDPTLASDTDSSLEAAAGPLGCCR
Sequence of Rho-associated protein kinase 1 (Q13464 whole entry): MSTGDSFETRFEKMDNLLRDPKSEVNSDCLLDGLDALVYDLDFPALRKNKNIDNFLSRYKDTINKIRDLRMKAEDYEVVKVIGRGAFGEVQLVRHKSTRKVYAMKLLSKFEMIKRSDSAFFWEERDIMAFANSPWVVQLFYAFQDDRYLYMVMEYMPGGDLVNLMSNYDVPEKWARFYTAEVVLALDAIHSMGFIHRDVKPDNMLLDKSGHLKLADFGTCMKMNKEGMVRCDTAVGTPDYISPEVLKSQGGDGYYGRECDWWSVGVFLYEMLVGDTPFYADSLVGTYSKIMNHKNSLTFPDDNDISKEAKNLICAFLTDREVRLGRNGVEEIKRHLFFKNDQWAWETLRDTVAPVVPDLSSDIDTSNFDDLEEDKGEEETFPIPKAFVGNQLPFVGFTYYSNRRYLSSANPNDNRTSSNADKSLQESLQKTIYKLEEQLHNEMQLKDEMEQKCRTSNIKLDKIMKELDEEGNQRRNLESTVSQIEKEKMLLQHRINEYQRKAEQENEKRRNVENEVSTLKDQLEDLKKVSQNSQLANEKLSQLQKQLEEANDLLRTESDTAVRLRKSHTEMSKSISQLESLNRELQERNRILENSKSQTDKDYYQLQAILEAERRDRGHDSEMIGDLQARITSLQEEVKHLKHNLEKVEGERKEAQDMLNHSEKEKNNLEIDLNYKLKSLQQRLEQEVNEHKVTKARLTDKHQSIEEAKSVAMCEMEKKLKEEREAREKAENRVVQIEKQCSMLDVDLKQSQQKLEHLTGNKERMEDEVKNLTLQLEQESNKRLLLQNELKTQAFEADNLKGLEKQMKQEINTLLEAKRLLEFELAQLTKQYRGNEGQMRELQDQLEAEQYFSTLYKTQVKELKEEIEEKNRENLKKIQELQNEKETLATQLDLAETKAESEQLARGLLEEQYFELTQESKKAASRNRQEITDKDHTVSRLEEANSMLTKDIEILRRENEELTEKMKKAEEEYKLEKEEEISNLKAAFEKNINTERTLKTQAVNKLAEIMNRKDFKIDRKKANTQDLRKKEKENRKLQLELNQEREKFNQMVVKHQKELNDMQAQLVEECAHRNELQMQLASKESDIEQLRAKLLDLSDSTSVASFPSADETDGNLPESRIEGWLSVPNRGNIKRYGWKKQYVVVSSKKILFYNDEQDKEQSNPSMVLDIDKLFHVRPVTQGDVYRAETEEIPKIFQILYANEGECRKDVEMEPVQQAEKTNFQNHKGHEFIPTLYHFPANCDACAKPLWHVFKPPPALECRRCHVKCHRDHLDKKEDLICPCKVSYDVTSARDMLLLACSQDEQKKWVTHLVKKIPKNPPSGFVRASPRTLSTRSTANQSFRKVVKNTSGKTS

Row | SMILES | Ki (LIM domain kinase 1) | Ki [1] | Ki [2] | Ki [3] | Ki [4] | Ki [5] | Ki [6] | Ki [7] | Ki [8] | Ki [9] | Ki [10]
1 | CS(=O)(=O)N(Cc1ccc2[nH]c(=O)c3cccn3c2c1)C1CC1 | > 3.16 µM (inactive) | > 3.16 µM (inactive) | > 6.31 µM (inactive) | > 3.98 µM (inactive) | > 3.16 µM (inactive) | > 5.01 µM (inactive) | > 3.16 µM (inactive) | > 2.51 µM (inactive) | > 3.16 µM (inactive) | > 2.51 µM (inactive) | > 6.31 µM (inactive)
2 | CS(=O)(=O)Nc1ccc(Nc2ccc3[nH]nc(N)c3c2)cc1 | 0.501 µM (active) | > 5.01 µM (inactive) | 1.58 µM (active) | > 6.31 µM (inactive) | > 6.31 µM (inactive) | > 6.31 µM (inactive) | > 5.01 µM (inactive) | > 5.01 µM (inactive) | > 5.01 µM (inactive) | 1.26 µM (active) | 0.501 µM (active)
3 | O=C(Nc1n[nH]c2ccc(-c3cn(Cc4ccccc4)nn3)cc12)c1cc(F)ccc1F | > 3.16 µM (inactive) | 0.501 µM (active) | > 2 µM (inactive) | > 6.31 µM (inactive) | > 6.31 µM (inactive) | 3.98 µM (active) | 3.16 µM (active) | > 5.01 µM (inactive) | 0.0501 µM (active) | 0.00501 µM (active) | 0.01 µM (active)
